Measured values taken from paper PMC9090415, “Discovery of small molecule inhibitors of Plasmodium falciparum apicoplast DNA polymerase” (Journal of Enzyme Inhibition and Medicinal Chemistry, 2022).

Biological target: P. falciparum apicoplast DNA polymerase (Pf-apPOL) (Plasmodium falciparum, UniProt Q8ILY1)
Test: Fluorescence-based high-throughput DNA polymerase assay (molecular beacon), primary screen and dose-response
Assay type: biochemical
Method in brief: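 Single-point screening used 10 µM compound with 20 nM polymerase, 20 nM hairpin substrate and 6 µM dNTPs for 90 min at 25 °C. Confirmatory titrations (2.5–80 µM) followed fluorescence at three times, and IC50 was derived from a fit including a cooperativity term n.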

P. falciparum apicoplast DNA polymerase (Pf-apPOL), sequence (Q8ILY1 entry or part of it): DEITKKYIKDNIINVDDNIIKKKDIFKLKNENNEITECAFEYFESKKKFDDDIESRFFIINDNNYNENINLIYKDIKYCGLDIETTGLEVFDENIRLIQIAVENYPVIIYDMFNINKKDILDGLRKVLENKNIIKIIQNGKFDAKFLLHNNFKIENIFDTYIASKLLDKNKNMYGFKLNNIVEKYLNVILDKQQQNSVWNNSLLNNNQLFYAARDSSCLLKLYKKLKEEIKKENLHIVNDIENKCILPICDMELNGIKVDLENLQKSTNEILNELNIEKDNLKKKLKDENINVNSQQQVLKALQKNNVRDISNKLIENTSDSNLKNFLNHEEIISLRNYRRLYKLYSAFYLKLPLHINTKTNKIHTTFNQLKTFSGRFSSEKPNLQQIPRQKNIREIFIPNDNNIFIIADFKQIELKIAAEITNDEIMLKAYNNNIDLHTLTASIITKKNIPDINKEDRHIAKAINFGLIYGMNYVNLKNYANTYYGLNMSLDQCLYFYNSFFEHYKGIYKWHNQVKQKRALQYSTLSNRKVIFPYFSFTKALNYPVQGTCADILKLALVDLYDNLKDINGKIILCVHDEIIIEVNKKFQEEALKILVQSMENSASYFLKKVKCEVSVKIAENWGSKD

Nc1c(S(=O)(=O)O)cc(Nc2ccccc2)c2c1C(=O)c1ccccc1C2=O [KU0045407]
DNA Pol ('DNA Pol' of the 186 hits list (primary screen result); unit not given; 90 min, 10 µM): 49 | % inhibition Apo pol 10' (DRC-1; 10'; concentration 2.5): 39.3278% | % inhibition Apo pol 10' (DRC-1; 10'; concentration 5): 47.4944% | % inhibition Apo pol 10' (DRC-1; 10'; concentration 10): 57.4142% | % inhibition Apo pol 10' (DRC-1; 10'; concentration 20): 88.2417% | % inhibition Apo pol 10' (DRC-1; 10'; concentration 40): 98.9011% | % inhibition Apo pol 10' (DRC-1; 10'; concentration 80): 101.451% | % inhibition Apol 90' (DRC-1; 90'; concentration 2.5): 14.8722% | % inhibition Apol 90' (DRC-1; 90'; concentration 5): 18.228% | % inhibition Apol 90' (DRC-1; 90'; concentration 10): 36.638% | % inhibition Apol 90' (DRC-1; 90'; concentration 20): 73.4923% | % inhibition Apol 90' (DRC-1; 90'; concentration 40): 92.3698% | % inhibition Apol 90' (DRC-1; 90'; concentration 80): 99.716% | % inhibition apPOL 180' (DRC-1; 180'; concentration 2.5): 5.356% | % inhibition apPOL 180' (DRC-1; 180'; concentration 5): 9.027% | % inhibition apPOL 180' (DRC-1; 180'; concentration 10): 27.7566% | % inhibition apPOL 180' (DRC-1; 180'; concentration 20): 64.7558% | % inhibition apPOL 180' (DRC-1; 180'; concentration 40): 88.0246% | % inhibition apPOL 180' (DRC-1; 180'; concentration 80): 99.8487% | % inhibition Apo pol 5' (DRC-2, 5', concentration 10 (unit not given)): 39% | % inhibition Apo pol 5' (DRC-2, 5', concentration 40 (unit not given)): 75% | % inhibition Apol 40' (DRC-2, 40', concentration 5 (unit not given)): 15% | % inhibition Apol 40' (DRC-2, 40', concentration 20 (unit not given)): 81% | % inhibition Apol 40' (DRC-2, 40', concentration 40 (unit not given)): 86% | % inhibition ApPOL 90' (DRC-2, 90', concentration 10 (unit not given)): 39% | % inhibition ApPOL 90' (DRC-2, 90', concentration 20 (unit not given)): 81% | % inhibition apPOL 180' (DRC-2, 180', concentration 20 (unit not given)): 75% | % inhibition apPOL 180' (DRC-2, 180', concentration 80 (unit not given)): 86% | % inhibition Apo pol 5' (DRC-2; 5'; concentration 2.5): 2.61% | % inhibition Apo pol 5' (DRC-2; 5'; concentration 5): 15% | % inhibition Apo pol 5' (DRC-2; 5'; concentration 5 (unit not given)): 15% | % inhibition Apo pol 5' (DRC-2; 5'; concentration 10): 39% | % inhibition Apo pol 5' (DRC-2; 5'; concentration 20): 73% | % inhibition Apo pol 5' (DRC-2; 5'; concentration 40): 75% | % inhibition Apo pol 5' (DRC-2; 5'; concentration 80): 62% | % inhibition Apol 40' (DRC-2; 40'; concentration 2.5): 1.87% | % inhibition Apol 40' (DRC-2; 40'; concentration 5): 15% | % inhibition Apol 40' (DRC-2; 40'; concentration 10): 40% | % inhibition Apol 40' (DRC-2; 40'; concentration 20): 81% | % inhibition Apol 40' (DRC-2; 40'; concentration 40): 86% | % inhibition Apol 40' (DRC-2; 40'; concentration 80): 80% | % inhibition ApPOL 90' (DRC-2; 90'; concentration 2.5): 2.58% | % inhibition ApPOL 90' (DRC-2; 90'; concentration 5): 14% | % inhibition ApPOL 90' (DRC-2; 90'; concentration 10): 39% | % inhibition ApPOL 90' (DRC-2; 90'; concentration 20): 81% | % inhibition ApPOL 90' (DRC-2; 90'; concentration 40): 87% | % inhibition ApPOL 90' (DRC-2; 90'; concentration 80): 83% | % inhibition apPOL 180' (DRC-2; 180'; concentration 2.5): 3.63% | % inhibition apPOL 180' (DRC-2; 180'; concentration 5): 5% | % inhibition apPOL 180' (DRC-2; 180'; concentration 10): 30% | % inhibition apPOL 180' (DRC-2; 180'; concentration 20): 75% | % inhibition apPOL 180' (DRC-2; 180'; concentration 40): 85% | % inhibition apPOL 180' (DRC-2; 180'; concentration 80): 86% | DNA Pol (primary screen value of the library well; unit not given; 90 min, 10 µM): 49

Cc1ncc(CSc2nc(C(C)(C)C)cs2)c(CO)c1O [KU0264007]
DNA Pol (186 hits, value of the hit list (primary screen); unit not given; 90 min, 10 µM): 70 | % inhibition Apo pol 10' (DRC-1; 10'; concentration 2.5): 0.8986% | % inhibition Apo pol 10' (DRC-1; 10'; concentration 5): 5.699% | % inhibition Apo pol 10' (DRC-1; 10'; concentration 10): 22.1813% | % inhibition Apo pol 10' (DRC-1; 10'; concentration 20): 37.8368% | % inhibition Apo pol 10' (DRC-1; 10'; concentration 40): 57.9296% | % inhibition Apo pol 10' (DRC-1; 10'; concentration 80): 69.8809% | % inhibition Apol 90' (DRC-1; 90'; concentration 2.5): -0.5136% | % inhibition Apol 90' (DRC-1; 90'; concentration 5): -0.3111% | % inhibition Apol 90' (DRC-1; 90'; concentration 10): 8.991% | % inhibition Apol 90' (DRC-1; 90'; concentration 20): 19.9803% | % inhibition Apol 90' (DRC-1; 90'; concentration 40): 38.5024% | % inhibition Apol 90' (DRC-1; 90'; concentration 80): 54.4417% | % inhibition apPOL 180' (DRC-1; 180'; concentration 2.5): -1.351% | % inhibition apPOL 180' (DRC-1; 180'; concentration 5): -5.176% | % inhibition apPOL 180' (DRC-1; 180'; concentration 10): 0.78% | % inhibition apPOL 180' (DRC-1; 180'; concentration 20): 8.562% | % inhibition apPOL 180' (DRC-1; 180'; concentration 40): 22.9628% | % inhibition apPOL 180' (DRC-1; 180'; concentration 80): 39.37% | % inhibition Apo pol 5' (DRC-2, 5', concentration 2.5): 6.56% | % inhibition Apo pol 5' (DRC-2, 5', concentration 5): 10% | % inhibition Apo pol 5' (DRC-2, 5', concentration 10): 24% | % inhibition Apo pol 5' (DRC-2, 5', concentration 20): 37% | % inhibition Apo pol 5' (DRC-2, 5', concentration 40): 45% | % inhibition Apo pol 5' (DRC-2, 5', concentration 80): 50% | % inhibition Apol 40' (DRC-2, 40', concentration 2.5): 4% | % inhibition Apol 40' (DRC-2, 40', concentration 5): 6.47% | % inhibition Apol 40' (DRC-2, 40', concentration 10): 20% | % inhibition Apol 40' (DRC-2, 40', concentration 20): 35% | % inhibition Apol 40' (DRC-2, 40', concentration 40): 47% | % inhibition Apol 40' (DRC-2, 40', concentration 80): 61% | % inhibition ApPOL 90' (DRC-2, 90', concentration 2.5): 1.8% | % inhibition ApPOL 90' (DRC-2, 90', concentration 5): 2.55% | % inhibition ApPOL 90' (DRC-2, 90', concentration 10): 14% | % inhibition ApPOL 90' (DRC-2, 90', concentration 20): 28% | % inhibition ApPOL 90' (DRC-2, 90', concentration 40): 43% | % inhibition ApPOL 90' (DRC-2, 90', concentration 80): 62% | % inhibition apPOL 180' (DRC-2, 180', concentration 2.5): -3% | % inhibition apPOL 180' (DRC-2, 180', concentration 5): -4.6% | % inhibition apPOL 180' (DRC-2, 180', concentration 10): 2.58% | % inhibition apPOL 180' (DRC-2, 180', concentration 20): 14% | % inhibition apPOL 180' (DRC-2, 180', concentration 40): 30% | % inhibition apPOL 180' (DRC-2, 180', concentration 80): 58% | % inhibition ApPOL 90' (DRC-2; 90'; concentration 10): 14% | % inhibition apPOL 180' (DRC-2; 180'; concentration 20): 14% | DNA Pol (primary screen value, 'DNA Pol' only; 90 min, 10 µM): 70

O=C(Cn1ccc2c(=O)[nH]ccc21)Nc1ccc(Cl)cc1 [Molecule 36]
IC50 (supplemental file 2, sheet IC50 nontoxic compounds; Pf-apPOL): 12.8 µM
